According to PMC13231921 (Antimicrobial Agents and Chemotherapy, 2026):

Experiment: Pharmacokinetics of GST-HG171 and ritonavir in plasma, alone and co-administered with itraconazole (drug-drug interaction study)
Conditions: Day 3, N = 12, median (minimum, maximum)

## CC(C)c1nc(CN(C)C(=O)N[C@H](C(=O)N[C@@H](Cc2ccccc2)C[C@H](O)[C@H](Cc2ccccc2)NC(=O)OCc2cncs2)C(C)C)cs1 [Ritonavir, ritonavir]
  Tmax: 2.50 (2.0008, 3.0011) h
